Tests used:
[1] = tested on: acetylation of chromatin at H3K18 (p300 and CBP) in HCT-116 cells; assay: H3K18Ac MSD cellular assay; format: cell-based; conditions: 2 hr treatment
Procedure: Select compounds were also evaluated in a H3K18Ac MSD cellular assay that measures the ability of compounds to inhibit the acetylation of chromatin at H3K18, a process catalyzed by p300 and CBP. In a typical experiment the p300 HAT inhibitory activity inside cells of the compounds described herein was determined in accordance with the following experimental method. 20 k HCT-116 cells per well are plated in 75 μL RPMI+10% FBS media the night before treatment. Compounds plated in DMSO at 4× final concentration are resuspended in 30 μL RPMI+10% FBS, then 25 μL is combined with corresponding wells containing cells. Treated cells are incubated for 2 hr at 37° C., then lysed in 500 μL final volume and frozen at −80° C. MSD plates (Meso Scale Discovery) are coated overnight at 4° C. with 60 μL 1:500 α-total histone antibody (Millipore MAB3422) in PBS. Plates are then blocked with 5% BSA in TBST shaking at RT for 1 hr, washed, and 30 μL lysate added to each well for 2 hr shaking at RT. Plates are washed and 25 μL 1:216 α-H3K18ac antibody (CST 9675) in PBS added, then incubated for 1 hr shaking at RT. Plates are washed again, then 25 μL 1:1000 Sulfo-Tag goat α-rabbit antibody (Meso Scale Discovery R32Ab-1) in PBS is added for 1 hr shaking at RT. Plates are washed once more, then 150 μL 1× Read Buffer (MSD #R92TD-3) is added to all wells and read on MSD SECTOR Imager 2400 using the conventional read setup.

full length p300 = full length p300 (Homo sapiens (Human), UniProt Q09472); assay: full length p300 SPA assay; format: biochemical; conditions: average of at least 2 replicate titrations, read-out: FL P300 IC50
Chain of full length p300 (Q09472 whole entry, the tested form may be a part): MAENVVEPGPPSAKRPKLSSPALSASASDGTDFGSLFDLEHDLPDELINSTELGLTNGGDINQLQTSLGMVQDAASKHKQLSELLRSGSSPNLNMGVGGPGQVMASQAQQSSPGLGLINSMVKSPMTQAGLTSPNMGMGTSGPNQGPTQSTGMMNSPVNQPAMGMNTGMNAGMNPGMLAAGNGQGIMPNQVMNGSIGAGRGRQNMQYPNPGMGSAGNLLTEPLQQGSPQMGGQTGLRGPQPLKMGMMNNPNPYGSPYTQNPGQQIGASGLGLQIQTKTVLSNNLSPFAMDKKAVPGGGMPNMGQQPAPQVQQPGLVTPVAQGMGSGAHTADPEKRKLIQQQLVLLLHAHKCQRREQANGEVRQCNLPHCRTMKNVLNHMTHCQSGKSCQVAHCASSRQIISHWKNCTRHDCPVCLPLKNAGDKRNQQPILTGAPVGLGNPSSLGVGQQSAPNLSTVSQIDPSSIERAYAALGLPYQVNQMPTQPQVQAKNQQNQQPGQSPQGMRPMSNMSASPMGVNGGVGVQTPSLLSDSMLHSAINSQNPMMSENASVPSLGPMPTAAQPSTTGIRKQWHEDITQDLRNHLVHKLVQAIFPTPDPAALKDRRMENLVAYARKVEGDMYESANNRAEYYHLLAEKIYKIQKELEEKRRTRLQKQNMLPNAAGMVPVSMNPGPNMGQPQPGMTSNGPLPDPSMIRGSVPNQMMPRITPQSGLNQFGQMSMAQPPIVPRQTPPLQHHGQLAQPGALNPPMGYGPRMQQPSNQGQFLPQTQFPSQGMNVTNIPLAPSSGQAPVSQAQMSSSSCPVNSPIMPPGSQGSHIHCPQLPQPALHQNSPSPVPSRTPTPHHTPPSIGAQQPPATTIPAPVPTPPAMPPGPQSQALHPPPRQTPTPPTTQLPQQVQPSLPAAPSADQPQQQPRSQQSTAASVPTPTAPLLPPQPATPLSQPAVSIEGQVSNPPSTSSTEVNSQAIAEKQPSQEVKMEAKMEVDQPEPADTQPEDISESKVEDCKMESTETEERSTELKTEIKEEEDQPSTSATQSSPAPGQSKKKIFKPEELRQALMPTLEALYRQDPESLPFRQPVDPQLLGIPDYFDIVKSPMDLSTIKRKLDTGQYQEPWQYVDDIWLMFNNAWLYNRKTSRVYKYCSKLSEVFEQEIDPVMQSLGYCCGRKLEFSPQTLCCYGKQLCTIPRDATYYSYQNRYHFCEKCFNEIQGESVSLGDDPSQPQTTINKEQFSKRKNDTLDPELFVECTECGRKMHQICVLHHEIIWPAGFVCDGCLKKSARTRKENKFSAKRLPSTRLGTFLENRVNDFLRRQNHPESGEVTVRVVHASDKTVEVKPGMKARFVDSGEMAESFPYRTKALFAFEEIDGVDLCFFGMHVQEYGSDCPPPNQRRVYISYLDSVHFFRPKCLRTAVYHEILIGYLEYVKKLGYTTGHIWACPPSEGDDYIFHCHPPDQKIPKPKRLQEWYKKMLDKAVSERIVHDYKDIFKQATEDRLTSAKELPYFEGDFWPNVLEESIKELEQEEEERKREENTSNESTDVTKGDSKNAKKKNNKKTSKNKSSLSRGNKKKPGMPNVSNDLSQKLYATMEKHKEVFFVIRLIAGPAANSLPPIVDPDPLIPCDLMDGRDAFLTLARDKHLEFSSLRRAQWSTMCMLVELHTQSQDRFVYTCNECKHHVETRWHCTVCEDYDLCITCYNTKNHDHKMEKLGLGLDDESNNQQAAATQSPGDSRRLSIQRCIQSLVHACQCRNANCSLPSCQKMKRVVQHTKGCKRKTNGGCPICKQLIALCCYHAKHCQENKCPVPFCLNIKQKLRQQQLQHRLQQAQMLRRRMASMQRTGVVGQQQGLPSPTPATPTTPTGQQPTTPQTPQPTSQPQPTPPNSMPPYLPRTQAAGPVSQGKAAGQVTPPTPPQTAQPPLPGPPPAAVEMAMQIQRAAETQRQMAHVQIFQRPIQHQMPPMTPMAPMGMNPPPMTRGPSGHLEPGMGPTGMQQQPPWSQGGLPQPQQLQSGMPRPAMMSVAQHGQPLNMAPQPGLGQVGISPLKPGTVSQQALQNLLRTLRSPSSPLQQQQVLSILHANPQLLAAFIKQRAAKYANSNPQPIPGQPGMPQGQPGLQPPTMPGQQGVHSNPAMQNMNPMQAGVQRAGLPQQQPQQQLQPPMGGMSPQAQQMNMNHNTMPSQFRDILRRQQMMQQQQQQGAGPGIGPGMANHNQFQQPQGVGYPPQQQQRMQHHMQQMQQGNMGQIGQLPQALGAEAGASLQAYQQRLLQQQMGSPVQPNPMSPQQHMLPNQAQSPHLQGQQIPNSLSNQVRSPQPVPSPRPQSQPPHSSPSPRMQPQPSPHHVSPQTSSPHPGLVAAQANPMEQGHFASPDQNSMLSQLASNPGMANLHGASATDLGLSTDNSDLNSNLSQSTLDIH

[2] = molecular target: p300 HAT domain (residues 1287-1666) (Homo sapiens (Human), UniProt Q09472); assay: p300 HAT SPA assay (scintillation proximity assay, acetylation of biotinylated H3(1-21) peptide); format: biochemical; conditions: average of at least 2 replicate titrations
Chain of p300 HAT domain (residues 1287-1666) (Q09472 1287-1666): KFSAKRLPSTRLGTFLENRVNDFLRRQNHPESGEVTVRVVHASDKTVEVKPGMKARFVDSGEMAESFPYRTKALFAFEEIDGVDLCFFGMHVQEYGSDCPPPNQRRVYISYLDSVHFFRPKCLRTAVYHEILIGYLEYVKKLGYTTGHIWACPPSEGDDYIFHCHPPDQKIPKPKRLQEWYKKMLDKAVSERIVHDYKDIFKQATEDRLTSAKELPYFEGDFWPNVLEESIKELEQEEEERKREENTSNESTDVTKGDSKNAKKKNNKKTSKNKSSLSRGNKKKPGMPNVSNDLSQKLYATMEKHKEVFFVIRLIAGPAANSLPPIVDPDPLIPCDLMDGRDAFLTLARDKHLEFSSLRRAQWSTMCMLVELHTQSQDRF
In short: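 Purified p300 HAT domain reaction transferred to streptavidin plates to capture biotinylated H3(1-21) peptide, incubated 1.5 hr at RT, and read by scintillation proximity. IC50 values derived from concentration-response data.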

EC50 ([1]; Homo sapiens)	IC50 (full length p300)	IC50 [2]	EC50 [1]	Compound
30.7 nM	1.14 nM	16.9 nM	–	CC(CNC(C(=O)Nc1ccc(N2CCN(C)C(=O)C2)cn1)c1ccccc1)c1ccc(C#N)cc1 (single isomer, unassigned) [101 Isomer 1]
14 nM	< 0.5 nM	9.1 nM	–	CC(CNC(C(=O)Nc1ccc(-c2cn[nH]c2)cn1)c1ccccc1)c1ccc(C#N)cc1 (single isomer, unassigned) [104 Isomer 2]
18.8 nM	< 3.24 nM	21.9 nM	–	CC(CNC(C(=O)Nc1ccc(-c2cnn(C)c2)cn1)c1cnn(C)c1)c1ccc(C#N)cc1 (single isomer, unassigned) [127 Isomer 4]
29.6 nM	< 3.24 nM	24.9 nM	–	CC(CNC(C(=O)Nc1ccc(-c2cnn(C(F)F)c2)cn1)c1cnn(C)c1)c1ccc(C#N)cc1 (single isomer, unassigned) [128 Isomer 4]
40.6 nM	< 3.24 nM	14.4 nM	–	Cc1n[nH]c(C)c1-c1ccc(NC(=O)C(NC[C@@H](C)c2ccc(C#N)cc2)c2ccccc2)nc1 (single isomer, unassigned) [133 Isomer 2]
77.7 nM	< 3.24 nM	32.1 nM	–	C[C@H](CNC(C(=O)Nc1ccc(-c2ccc(=O)n(C)n2)cn1)c1ccccc1)c1ccc(C#N)cc1 (single isomer, unassigned) [134 Isomer 2]
56 nM	< 3.24 nM	9.3 nM	–	CC(=O)N1CCN(c2ccc(NC(=O)C(NC[C@@H](C)c3ccc(C#N)cc3)c3cccc(F)c3)nc2)CC1 (single isomer, unassigned) [135 Isomer 2]
70.1 nM	< 3.24 nM	26.4 nM	–	CC(CNC(C(=O)Nc1ccc(N2CCN(C)C(=O)C2)cn1)c1cnn(C)c1)c1ccc(C#N)cc1 (single isomer, unassigned) [136 Isomer 3]
27.3 nM	< 3.24 nM	8.62 nM	–	C[C@H](CNC(C(=O)Nc1ccc(N2CCN(C)C(=O)C2)cn1)c1cccc(F)c1)c1ccc(C#N)cc1 (single isomer, unassigned) [137 Isomer 2]
48.2 nM	< 3.24 nM	6.08 nM	–	C[C@H](CNC(C(=O)Nc1ccc(-c2cnn(CC(=O)N(C)C)c2)cn1)c1cccc(F)c1)c1ccc(C#N)cc1 (single isomer, unassigned) [138 Isomer 2]
24.8 nM	< 3.24 nM	21.2 nM	–	Cc1ccc(C(C)CNC(C(=O)Nc2ccc(-c3cnn(C)c3)cn2)c2ccccc2)cn1 (single isomer, unassigned) [143 Isomer 2]
84.5 nM	2.35 nM	50.8 nM	–	Cn1cc(-c2ccc(NC(=O)C(NCCc3ccc(Cl)cc3)c3cnn(C)c3)nc2)cn1 (single isomer, unassigned) [148 Isomer 1]
–	1.64 nM	13.7 nM	22.6 nM	(S,R)-, (R,S)-, (S,S)-, (R,R)-(2-((2-(4-cyanophenyl)propyl)amino)-N-(5-(1-(difluoromethyl)-1H-pyrazol-4-yl)pyridin-2-yl)-2-phenylacetamide [20 Isomer 2]

Reference: patent publication US11274090B2, “P300/CBP HAT inhibitors” (Constellation Pharmaceuticals, Inc., priority 2018, dated 2022)
